Paper PMC10399917 (Journal of Molecular Cell Biology, 2023)
Where “and” joins values, the source holds several entries; their conditions need not be identical. Equal values may be shown once. Read-outs that look alike come from different tables or passages of the source.

How the values were obtained:
[1] = target: TMPRSS2–SPIKE interaction (His-TMPRSS2 and SPIKE-FLAG) (Severe acute respiratory syndrome coronavirus 2, UniProt P0DTC2); test: biochemical; assay type: binding, SARS-CoV-2
[2] = target: TMPRSS2–SPIKE interaction (SmBiT-TMPRSS2 and SPIKE-LgBiT) (Severe acute respiratory syndrome coronavirus 2, UniProt P0DTC2); assay type: cell-based, SARS-CoV-2
SPIKE protein = conditions: ref Feng et al., 2020; cited from earlier work

Work on `CC(C)c1onc(-c2c(Cl)cccc2Cl)c1COc1ccc(/C=C/c2cccc(C(=O)O)c2)c(Cl)c1` [GW4064] yielded an IC50 ([1]; read-out: IC50, TR-FRET signal) of ~7 µM.
In the case of `O=C(/C=C/c1ccc(O)c(O)c1)OCCc1ccccc1` [CAPE, caffeic acid phenethyl ester], the “Inhibition of NanoBiT signal” value [2] is reported as “dose-dependent inhibition” and the IC50 ([1]; IC50, TR-FRET signal) is reported as 13.8 µM.
For `CC1=NN(c2ccc(C)c(C)c2)C(=O)/C1=N\Nc1cccc(-c2cccc(C(=O)O)c2)c1O` [eltrombopag olamine], the “Binding to the SPIKE protein” value (SPIKE protein) is listed as “bind to the SPIKE protein” and the IC50 ([1]; IC50, TR-FRET signal) is listed as ~20 µM and 20.6 µM.
For `N#C/C(=C/c1ccc(O)c(O)c1)C(=O)NCc1ccccc1` [AG-490], the IC50 ([1]; read-out: IC50, TR-FRET signal) was ~19 µM.
With `Cc1cc2c(C(C)C)c(O)c(O)c(C=O)c2c(O)c1-c1c(C)cc2c(C(C)C)c(O)c(O)c(C=O)c2c1O` [gossypol acetate] the “Inhibition of NanoBiT signal” value [2] was “dose-dependent inhibition” and the IC50 ([1]; IC50, TR-FRET signal) was 0.69 µM.
`Cc1cc(C(C#N)c2ccc(Cl)cc2)c(Cl)cc1NC(=O)c1cc(I)cc(I)c1O` (stereo not drawn) [closantel] gave an IC50 ([1]; IC50, TR-FRET signal) of ~17 µM.
